How the values were obtained:
FMDV = test system: FMDV; design: species or system C57BL/6 mice; settings: mouse, in vivo
SP antibodies in serum = test system: SP antibodies in serum; design: species or system C57BL/6 mice; settings: mouse, in vivo
porcine naive PBMCs = assay type: cell-based, pigs
porcine Mo-DCs [1] = assay type: cell-based, pigs
porcine PBMCs = assay type: cell-based, pigs; settings: 12 hours
porcine Mo-MΦs [2] = assay: Inhibition of phagocytosis by cytochalasin D, cytokine ELISA in Mo-MΦs
porcine Mo-DCs [3] = assay: Inhibition of phagocytosis by cytochalasin D, cytokine ELISA in Mo-DCs; settings: 5 μg/mL CytD 45 min before 1 μg/mL antigen
porcine Mo-MΦs [4] = assay type: cell-based, pigs

Molecule	increase of neutralizing antibody (VN titers) (FMDV)	antibody titers measured by SP-O ELISA compared to the control (SP antibodies in serum)	Cell proliferation, rank order (porcine naive PBMCs)	VN titers (FMDV)	also measured
C/C(=C\COP(=O)([O-])OP(=O)([O-])[O-])CO.[Li+].[Li+].[Li+] [HMP (H), (E)-1-hydroxy-2-methyl-2-butenyl 4-pyrophosphate lithium salt]	approximately 100 fold	significantly higher	>antigen+iNKT cell agonist (G)	–	–
Nc1nc2ncc(C=O)nc2c(=O)[nH]1 [6-Formylpterin (F), 6-formylpterin]	–	–	>antigen+T cell agonist (R)	high levels	antibody titers measured by SP-O ELISA (SP antibodies in serum): increased
TNFα	–	–	–	–	IL-1β (porcine Mo-DCs [1]): 432.97; IL-6 (porcine Mo-DCs [1]): 201.33; IL-10 (porcine Mo-DCs [1]): 10.85; IL-12/23p40 (porcine Mo-DCs [1]): 135.67; TNFα (porcine Mo-DCs [1]): 74.00
CCCCCCCCCCCCCCCCCCCCCCCCCC(=O)N[C@@H](CO[C@H]1O[C@H](CO)[C@H](O)[C@H](O)[C@H]1O)[C@H](O)[C@H](O)CCCCCCCCCCCCCC [α-Gal (G), α-galactosyl ceramide]	approximately 100 fold	significantly higher	>antigen+MAIT cell agonist (F)	highest	IL23A and IL23R expression (porcine PBMCs): specifically highly expressed
C=C(C)CCOP(=O)([O-])OP(=O)([O-])[O-].[Li+].[Li+].[Li+] [IPP (I), Isopentenyl pyrophosphate trilithium salt]	approximately 100 fold	significantly higher	>antigen alone	highest	–
C=C1[C@@H](C)[C@H]2[C@H](Cc3ccccc3)NC(=O)[C@]23[C@H](OC(C)=O)/C=C/[C@@](C)(O)C(=O)[C@@H](C)C/C=C/[C@H]3[C@@H]1O [CytD, cytochalasin D]	–	–	–	–	expression of cytokine when antigen is co-cultured after CytD treatment (porcine Mo-MΦs [2]; 5 μg/mL CytD 45 min before 1 μg/mL antigen): significantly suppressed; IL-10 expression after CytD treatment (porcine Mo-MΦs [2]; not significantly different from pretreatment levels): slightly suppressed; expression of cytokine when antigen is co-cultured after CytD treatment (porcine Mo-DCs [3]): significantly suppressed
IL-4: rpIL-4 (R&D Systems, 20 ng/mL) for M2 MΦ polarization (protein, UniProt Q04745 25-133, looked up) Interleukin-4: HKCDITLQEIIKTLNILTARKNSCMELPVTDVFAAPENTTEKETFCRASTVLRHIYRHHTCMKSLLSGLDRNLSSMANMTCSVHEAKKSTLKDFLERLKTIMKEKYSKC	–	–	–	–	IL-1β (porcine Mo-MΦs [4]): 223.43; IL-10 (porcine Mo-MΦs [4]): 1.88; IL-12/23p40 (porcine Mo-MΦs [4]): 29.00
